Structures can show the parent of a compound that is named as a salt.
biological target: PCAF719-832 bromodomain (Homo sapiens (Human), UniProt Q92831); assay: PCAF AlphaLisa binding assay; details: PCAF bromodomain 225 nM, biotinylated small molecule ligand 6 nM
Sequence (Q92831 719-832): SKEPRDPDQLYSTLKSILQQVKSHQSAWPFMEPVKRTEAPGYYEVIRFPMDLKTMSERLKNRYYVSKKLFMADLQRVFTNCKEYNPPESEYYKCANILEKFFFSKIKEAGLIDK
Method: PCAF bromodomain binding and inhibition of the compounds disclosed herein was assessed by monitoring the engagement of biotinylated small molecule ligand (known to bind to the PCAF bromodomain) with the target using the AlphaLisa technology (Perkin-Elmer).

SMILES | IC50 [nM]
COCCN(C)CCNc1nn(C)c(=O)c2ccccc12 [Example 49, 4-((2-((2-methoxyethyl)(methyl)amino)ethyl)amino)-2-methylphthalazin-1(2H)-one] | 3500
CN(C)[C@@H]1CCCC[C@@H]1Nc1nn(C)c(=O)c2cccnc12 (single isomer, unassigned) [Example 15B] | 1500
CC(C)Oc1ccc([C@@H]([C@H](C)Nc2nn(C)c(=O)c3ccccc23)N(C)C)cc1 (single isomer, unassigned) [Example 59] | 33
CN(C)C(CNc1nn(C)c(=O)c2ccccc12)C1CCCCC1 (racemic) [Example 38, 4-((2-cyclohexyl-2-(dimethylamino)ethyl)amino)-2-methylphthalazin-1(2H)-one] | 700
CN1CCCC1CNc1nn(C)c(=O)c2ccccc12 (racemic) [Example 30, 2-methyl-4-(((1-methylpyrrolidin-2-yl)methyl)amino)phthalazin-1(2H)-one] | 1700
COc1ccc2c(=O)n(C)nc(NCCN(C)C)c2c1 [Example 3, 4-((2-(dimethylamino)ethyl)amino)-6-methoxy-2-methylphthalazin-1(2H)-one] | 410
CC(C)NCCNc1nn(C)c(=O)c2ccccc12 [Example 40, 4-((2-(isopropylamino)ethyl)amino)-2-methylphthalazin-1(2H)-one] | 9400
CN1CC(Nc2nn(C)c(=O)c3cccnc23)C1 [Example 18, 6-methyl-8-((1-methylazetidin-3-yl)amino)pyridol[2,3-d]pyridazin-5(6H)-one] | 1500
C[C@H](Nc1nn(C)c(=O)c2cccnc12)[C@H](c1ccc(Oc2ccccc2)cc1)N(C)C (single isomer, unassigned) [Example 64] | 290
C[C@H](CNc1nn(C)c(=O)c2cccnc12)N(C)C (single isomer, unassigned) [Example 7B] | 72
CC(Nc1nn(C)c(=O)c2cccnc12)C(c1cn(C)nn1)N(C)C (single isomer, unassigned) [Example 75, 8-((1-(dimethylamino)-1-(1-methyl-1H-1,2,3-triazol-4-yl)propan-2-yl)amino)-6-methylpyrido[2,3-d]pyridazin-5(6H)-one] | 130
C[C@@H](CN(C)C)Nc1nn(C)c(=O)c2cccnc12 (single isomer, unassigned) [Example 8A] | 42
CN(C)C(CNc1nn(C)c(=O)c2ccccc12)c1ccccc1Cl (racemic) [Example 25, 4-((2-(2-chlorophenyl)-2-(dimethylamino)ethyl)amino)-2-methylphthalazin-1(2H)-one] | 110
C[C@H](Nc1nn(C)c(=O)c2ccccc12)[C@H](c1ccc(OCC2CC2)cc1)N(C)C (single isomer, unassigned) [Example 78] | 44
COC(=O)c1ccc([C@@H]([C@H](C)Nc2nn(C)c(=O)c3cccnc23)N(C)C)cc1 [Example 68, Methyl 4-((1S,2S)-1-(dimethylamino)-2-((6-methyl-5-oxo-5,6-dihydropyrido[2,3-d]pyridazin-8-yl)amino)propyl)benzoate] | 160
CC(CN(C)C)Nc1nn(C)c(=O)c2ccccc12 (racemic) [Example 28, 4-((1-(dimethylamino)propan-2-yl)amino)-2-methylphthalazin-1(2H)-one] | 66
C[C@H](Nc1nn(C)c(=O)c2ccccc12)[C@H](c1ccccc1)N(C)C (single isomer, unassigned) [Example 73A] | 23
CN(C)CCNc1nn(C)c(=O)c2cccnc12 [Example 2, 8-((2-(dimethylamino)ethyl)amino)-6-methylpyrido[2,3-d]pyridazin-5(6H)-one] | 140
Cn1nc(N[C@H]2CCCC[C@H]2N)c2ncccc2c1=O (single isomer, unassigned) [Example 14B] | 1500
C[C@H](Nc1nn(C)c(=O)c2[nH]ccc12)[C@H](c1ccccc1)N(C)C (single isomer, unassigned) [Example 71A] | > 5000
CN(C)[C@@H]1c2ccccc2C[C@@H]1Nc1nn(C)c(=O)c2cccnc12 [Example 46A, 8-(((1R,2S)-1-(dimethylamino)-2,3-dihydro-1H-inden-2-yl)amino)-6-methylpyrido[2,3-d]pyridazin-5(6H)-one] | 4800
C[C@H](Nc1nn(C)c(=O)c2cccnc12)[C@H](c1ccc(C(=O)OCc2ccccc2)cc1)N(C)C [Example 87, benzyl 4-((1S,2S)-1-(dimethylamino)-2-((6-methyl-5-oxo-5,6-dihydropyrido[2,3-d]pyridazin-8-yl)amino)propyl)benzoate hydrochloride] | 29

Source: US10155764B2, “Therapeutic compounds and uses thereof” (GENENTECH, INC., priority 2014, dated 2018)
